In patent US8815857B2 (Boehringer Ingelheim International GmbH, priority 2011, dated 2014):
Converted amounts (≈) assume the structure as drawn.

Legend:
[1] = target: T1, human soluble guanylate cyclase alpha 1 and beta 1 subunits (sGC) stably expressed in Chinese hamster ovary cells (Homo sapiens, UniProt Q02108+Q02153); experiment: sGC cellular activator assay: cGMP in CHO cells expressing human sGC, preincubated with ODQ; type: cell-based; settings: 40 microM ODQ preincubation, 30 min at room temperature, presence or absence of 50% human serum not given, read-out: EC50 nM, Activity of Compounds in Cellular Assay
T1 construct: expressed in transfected cells; host or cells: Chinese hamster ovary cells, stably transfected
T1 sequence (Q02108 1-690 partner): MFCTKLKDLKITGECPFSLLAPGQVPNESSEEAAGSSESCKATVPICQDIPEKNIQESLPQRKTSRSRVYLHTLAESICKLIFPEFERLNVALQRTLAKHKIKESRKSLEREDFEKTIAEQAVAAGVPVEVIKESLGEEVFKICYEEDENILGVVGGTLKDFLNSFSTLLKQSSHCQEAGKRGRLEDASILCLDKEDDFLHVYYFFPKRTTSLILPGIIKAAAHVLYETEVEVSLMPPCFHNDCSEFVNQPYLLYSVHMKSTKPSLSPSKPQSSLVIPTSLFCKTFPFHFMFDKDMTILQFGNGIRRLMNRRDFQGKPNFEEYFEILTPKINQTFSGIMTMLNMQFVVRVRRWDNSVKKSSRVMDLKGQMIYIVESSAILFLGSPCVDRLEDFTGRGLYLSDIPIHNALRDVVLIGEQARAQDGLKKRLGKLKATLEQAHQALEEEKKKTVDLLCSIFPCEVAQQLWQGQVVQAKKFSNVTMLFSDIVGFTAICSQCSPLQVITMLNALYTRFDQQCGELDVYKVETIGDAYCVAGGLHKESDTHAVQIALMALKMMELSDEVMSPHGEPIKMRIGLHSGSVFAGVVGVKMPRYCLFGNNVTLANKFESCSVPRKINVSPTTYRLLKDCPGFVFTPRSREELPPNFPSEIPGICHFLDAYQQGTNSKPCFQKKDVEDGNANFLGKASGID
T1 sequence (Q02153 1-619): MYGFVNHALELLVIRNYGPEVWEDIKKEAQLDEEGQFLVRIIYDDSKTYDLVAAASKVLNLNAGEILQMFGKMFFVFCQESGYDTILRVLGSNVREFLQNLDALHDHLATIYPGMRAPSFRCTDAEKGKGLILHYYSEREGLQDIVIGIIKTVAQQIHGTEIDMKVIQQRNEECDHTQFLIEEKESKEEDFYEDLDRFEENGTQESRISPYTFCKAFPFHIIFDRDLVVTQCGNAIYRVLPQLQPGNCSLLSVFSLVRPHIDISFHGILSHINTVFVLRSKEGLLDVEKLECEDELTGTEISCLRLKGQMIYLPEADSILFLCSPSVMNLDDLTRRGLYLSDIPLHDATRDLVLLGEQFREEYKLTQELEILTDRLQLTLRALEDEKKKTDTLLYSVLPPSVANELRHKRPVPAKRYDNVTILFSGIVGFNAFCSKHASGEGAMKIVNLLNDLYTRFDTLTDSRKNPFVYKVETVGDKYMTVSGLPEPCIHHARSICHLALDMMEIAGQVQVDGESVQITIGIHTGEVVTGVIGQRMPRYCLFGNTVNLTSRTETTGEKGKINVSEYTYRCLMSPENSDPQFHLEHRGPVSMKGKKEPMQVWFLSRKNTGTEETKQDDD
Outline: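 EC50 values derive from HTRF cGMP measurement after test compounds act for thirty minutes at room temperature, with or without 50% human serum. Before dosing, the sGC-transfected CHO cells spend one hour with the inhibitor ODQ (40 microM) in IBMX- and 0.1% BSA-containing buffer.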

[2] = Assessment of solubility: HT solubility in pION buffer, UV spectrophotometry; settings: kinetic from dmso stock
[3] = pH 6.8, aqueous buffer, Solubility (pH 6.8), pH 6.8
[4] = pION system solution buffer, pH 4.5, pH 4.5, aqueous buffer, Solubility (pH 4.5), pH 4.5 buffer, 16-19 h incubation, 1.0% DMSO
[5] = pION system solution buffer, pH 7.4, pH 7.4, aqueous buffer, Solubility (pH 7.4), pH 7.4 buffer, 16-19 h incubation, 1.0% DMSO

Compound	EC50 [1]	solubility [2, 3]	solubility [2, 4]	solubility [2, 5]
Cc1ccc(OCc2ccc(CN3CCN(C)C(=O)C3)cc2C)c(-c2csc(N3CC4CCC(C3)C4C(=O)O)n2)c1 (stereo not drawn) [Compound 289]	3.4 nM	35 µg/mL (≈ 60.9 µM)	1.5 µg/mL (≈ 2.61 µM)	–
Cc1ccc(OCc2ccc(CN3CCN(C)C(=O)C3C)cc2C)c(-c2csc(N3CC4CCC(C3)C4C(=O)O)n2)c1 (stereo not drawn) [Compound 290]	4.3 nM	21 µg/mL (≈ 35.7 µM)	0.69 µg/mL (≈ 1.17 µM)	–
CCN1CCN(Cc2ccc(COc3ccc(C)cc3-c3csc(N4CC5CCC(C4)C5C(=O)O)n3)c(C)c2)CC1=O (stereo not drawn) [Compound 291]	7.6 nM	13 µg/mL (≈ 22.1 µM)	0.18 µg/mL (≈ 0.306 µM)	–
Cc1ccc(OCc2ccc(CN3CCN(C(C)C)C(=O)C3)cc2C)c(-c2csc(N3CC4CCC(C3)C4C(=O)O)n2)c1 (stereo not drawn) [Compound 293]	29 nM	3.4 µg/mL (≈ 5.64 µM)	< 0.1 µg/mL	–
Cc1ccc(OCc2ccc(C(=O)N(C)CCC#N)cc2C)c(-c2csc(N3C[C@H]4CC[C@@H](C3)[C@H]4C(=O)O)n2)c1 [Compound 296]	50 nM	10 µg/mL (≈ 17.9 µM)	< 0.1 µg/mL	–
Cc1ccc(OCc2ccc(C(=O)N(C)CCO)cc2C)c(-c2csc(N3C[C@H]4CC[C@@H](C3)[C@H]4C(=O)O)n2)c1 [Compound 297]	100 nM	63 µg/mL (≈ 115 µM)	1.7 µg/mL (≈ 3.09 µM)	–
CCN(CCO)C(=O)c1ccc(COc2ccc(C)cc2-c2csc(N3C[C@H]4CC[C@@H](C3)[C@H]4C(=O)O)n2)c(C)c1 [Compound 298]	59 nM	66 µg/mL (≈ 117 µM)	0.32 µg/mL (≈ 0.568 µM)	–
Cc1ccc(OCc2ccc(C(=O)N3CCCC3)cc2C)c(-c2csc(N3C[C@H]4CC[C@@H](C3)[C@H]4C(=O)O)n2)c1 [Compound 299]	8.4 nM	36 µg/mL (≈ 66 µM)	0.17 µg/mL (≈ 0.312 µM)	–
Cc1ccc(OCc2ccc(C(=O)N3CCN(C)CC3)cc2C)c(-c2csc(N3C[C@H]4CC[C@@H](C3)[C@H]4C(=O)O)n2)c1 [Compound 300]	44 nM	60 µg/mL (≈ 104 µM)	53 µg/mL (≈ 92.2 µM)	–
Cc1ccc(OCc2ccc(C(=O)N3CCC(O)CC3)cc2C)c(-c2csc(N3C[C@H]4CC[C@@H](C3)[C@H]4C(=O)O)n2)c1 [Compound 301]	57 nM	65 µg/mL (≈ 113 µM)	0.24 µg/mL (≈ 0.417 µM)	–
Cc1ccc(OCc2ccc(C(=O)N3CCCCCC3)cc2C)c(-c2csc(N3C[C@H]4CC[C@@H](C3)[C@H]4C(=O)O)n2)c1 [Compound 302]	35 nM	4.6 µg/mL (≈ 8.02 µM)	< 0.1 µg/mL	–
CCN(C)C(=O)c1ccc(COc2ccc(C)cc2-c2csc(N3C[C@H]4CC[C@@H](C3)[C@H]4C(=O)O)n2)c(C)c1 [Compound 303]	11 nM	36 µg/mL (≈ 67.5 µM)	0.13 µg/mL (≈ 0.244 µM)	–
Cc1ccc(OCc2ccc(C(=O)N(C)C)cc2C)c(-c2csc(N3C[C@H]4CC[C@@H](C3)[C@H]4C(=O)O)n2)c1 [Compound 304]	23 nM	60 µg/mL (≈ 115 µM)	< 0.1 µg/mL	–
Cc1ccc(OCc2ccc(C(=O)N(C)CCN(C)C)cc2C)c(-c2csc(N3C[C@H]4CC[C@@H](C3)[C@H]4C(=O)O)n2)c1 [Compound 305]	140 nM	67 µg/mL (≈ 116 µM)	62 µg/mL (≈ 107 µM)	–
Cc1ccc(OCc2ccc(C(=O)N(C)CC3CCCO3)cc2C)c(-c2csc(N3C[C@H]4CC[C@@H](C3)[C@H]4C(=O)O)n2)c1 (stereo partly drawn) [Compound 306]	21 nM	50 µg/mL (≈ 84.8 µM)	0.13 µg/mL (≈ 0.22 µM)	5.2 µg/mL (≈ 8.82 µM)
CCN(CCC#N)C(=O)c1ccc(COc2ccc(C)cc2-c2csc(N3C[C@H]4CC[C@@H](C3)[C@H]4C(=O)O)n2)c(C)c1 [Compound 307]	24 nM	37 µg/mL (≈ 64.6 µM)	0.15 µg/mL (≈ 0.262 µM)	–

Compound	EC50 [1]	solubility [2, 3]	solubility [2, 4]	solubility [2, 5]
Cc1ccc(OCc2ccc(C(=O)N3CCN(C)C(=O)C3)cc2C)c(-c2csc(N3C[C@H]4CC[C@@H](C3)[C@H]4C(=O)O)n2)c1 [Compound 308]	20 nM	66 µg/mL (≈ 112 µM)	0.88 µg/mL (≈ 1.49 µM)	–
Cc1ccc(OCc2ccc(C(=O)N3CCC(CO)CC3)cc2C)c(-c2csc(N3C[C@H]4CC[C@@H](C3)[C@H]4C(=O)O)n2)c1 [Compound 309]	42 nM	63 µg/mL (≈ 107 µM)	< 0.1 µg/mL	–
Cc1ccc(OCc2ccc(C(=O)N3CC[C@@H](N(C)C)C3)cc2C)c(-c2csc(N3C[C@H]4CC[C@@H](C3)[C@H]4C(=O)O)n2)c1 [Compound 310]	99 nM	61 µg/mL (≈ 104 µM)	59 µg/mL (≈ 100 µM)	–
Cc1ccc(OCc2ccc(C(=O)N3CC[C@H](N(C)C)C3)cc2C)c(-c2csc(N3C[C@H]4CC[C@@H](C3)[C@H]4C(=O)O)n2)c1 [Compound 311]	29 nM	63 µg/mL (≈ 107 µM)	58 µg/mL (≈ 98.5 µM)	–
Cc1ccc(OCc2ccc(C(=O)N3CCC[C@@H](O)C3)cc2C)c(-c2csc(N3C[C@H]4CC[C@@H](C3)[C@H]4C(=O)O)n2)c1 [Compound 312]	35 nM	13 µg/mL (≈ 22.6 µM)	0.26 µg/mL (≈ 0.452 µM)	–
Cc1ccc(OCc2ccc(C(=O)N3CC[C@H](O)C3)cc2C)c(-c2csc(N3C[C@H]4CC[C@@H](C3)[C@H]4C(=O)O)n2)c1 [Compound 313]	120 nM	78 µg/mL (≈ 139 µM)	1.3 µg/mL (≈ 2.31 µM)	–
Cc1ccc(OCc2ccc(C(=O)N3CCNC(=O)C3)cc2C)c(-c2csc(N3C[C@H]4CC[C@@H](C3)[C@H]4C(=O)O)n2)c1 [Compound 314]	63 nM	68 µg/mL (≈ 118 µM)	2.4 µg/mL (≈ 4.18 µM)	–
Cc1ccc(OCc2ccc(C(=O)N(C)Cc3cnn(C)c3)cc2C)c(-c2csc(N3C[C@H]4CC[C@@H](C3)[C@H]4C(=O)O)n2)c1 [Compound 315]	57 nM	54 µg/mL (≈ 90 µM)	< 0.1 µg/mL	> 60 µg/mL
Cc1ccc(OCc2ccc(C(=O)N3CCCOCC3)cc2C)c(-c2csc(N3C[C@H]4CC[C@@H](C3)[C@H]4C(=O)O)n2)c1 [Compound 316]	15 nM	64 µg/mL (≈ 111 µM)	< 0.1 µg/mL	–
Cc1ccc(OCc2ccc(C(=O)N3CCC(F)(F)CC3)cc2C)c(-c2csc(N3C[C@H]4CC[C@@H](C3)[C@H]4C(=O)O)n2)c1 [Compound 317]	20 nM	41 µg/mL (≈ 68.8 µM)	< 0.1 µg/mL	–
Cc1ccc(OCc2ccc(C(=O)N(C)Cc3ccnn3C)cc2C)c(-c2csc(N3C[C@H]4CC[C@@H](C3)[C@H]4C(=O)O)n2)c1 [Compound 318]	66 nM	34 µg/mL (≈ 56.7 µM)	< 0.1 µg/mL	> 53 µg/mL
Cc1ccc(OCc2ccc(C(=O)N3CCC[C@H](O)C3)cc2C)c(-c2csc(N3C[C@H]4CC[C@@H](C3)[C@H]4C(=O)O)n2)c1 [Compound 319]	70 nM	12 µg/mL (≈ 20.8 µM)	0.23 µg/mL (≈ 0.399 µM)	–
Cc1ccc(OCc2ccc(C(=O)N3CCC(F)(F)C3)cc2C)c(-c2csc(N3C[C@H]4CC[C@@H](C3)[C@H]4C(=O)O)n2)c1 [Compound 320]	15 nM	36 µg/mL (≈ 61.9 µM)	< 0.1 µg/mL	–
COC1CCN(C(=O)c2ccc(COc3ccc(C)cc3-c3csc(N4C[C@H]5CC[C@@H](C4)[C@H]5C(=O)O)n3)c(C)c2)CC1 [Compound 321]	55 nM	41 µg/mL (≈ 69.5 µM)	0.13 µg/mL (≈ 0.22 µM)	–
COC1CCCN(C(=O)c2ccc(COc3ccc(C)cc3-c3csc(N4C[C@H]5CC[C@@H](C4)[C@H]5C(=O)O)n3)c(C)c2)C1 (stereo partly drawn) [Compound 322]	19 nM	42 µg/mL (≈ 71.2 µM)	0.15 µg/mL (≈ 0.254 µM)	–
Cc1ccc(OCc2ccc(C(=O)N3CCC(C#N)CC3)cc2C)c(-c2csc(N3C[C@H]4CC[C@@H](C3)[C@H]4C(=O)O)n2)c1 [Compound 323]	51 nM	39 µg/mL (≈ 66.7 µM)	< 0.1 µg/mL	–
